Test results taken from the NIST ThermoML archive (doi:10.1016/j.fluid.2005.09.011).

Conditions: Liquid; for mass density: 101.33 kPa

FC(F)C(F)(F)C(F)(F)C(F)(F)C(F)(F)C(F)(F)C(F)(F)C(F)F [1,1,2,2,3,3,4,4,5,5,6,6,7,7,8,8-hexadecafluorooctane]
Conditions | mass density [kg/m3] | vapor or sublimation pressure [kPa]
288.15 K | 1775.3 | –
289.31 K | – | 0.55
293.15 K | 1764.4 | –
293.26 K | – | 0.75
298.15 K | 1753.4 | –
298.2 K | – | 0.99
303.15 K | 1742.4 | –
303.18 K | – | 1.43
308.15 K | 1731.3 | –
308.17 K | – | 1.92
313.15 K | 1720.2 | –
313.18 K | – | 2.49
318.14 K | – | 3.12
323.15 K | – | 4.07
328.15 K | – | 5.26
333.14 K | – | 6.64
